Consider 14 molecules from patent US6660872B1, “Method of producing methoxyimino acetic amide” (Bayer Aktiengesellschaft, priority 1999, dated 2003).

A short description of this data set: determination of the logP-Values by HPLC according to EEC-Direktive 79/831 Annex V. A8. Conditions: gradient method, acetonitrile/0,1% aqueous phosphoric acid; for chromatographic logP: HPLC (gradient, acetonitrile/0.1% aqueous phosphoric acid), read-out: log p. It is filed as physicochemical. Here is the method:
The determination of the logP-Values was carried out for all examples according to the EEC-Direktive 79/831 Annex V. A8 by HPLC (gradient method, acetonitrile/0,1% aqueous phosphoric acid).

SMILES strings stand for the structures. Values joined by “and” are separate entries in the source; they are usually repeats but may differ in a detail not shown here. Equal values may be shown once.

As for `CO/N=C(\C(=O)OC)c1ccccc1O` [methyl Z-2-(2-hydroxyphenyl)-2-methoxyimino-acetate], the chromatographic logP was 2.39; the log p is 2.38 and 2.37. For the molecule `COC(=O)C(=O)c1ccccc1O` [methyl 2-hydroxyphenylglyoxylate], the chromatographic logP stood at 1.87.

As to `CNC(=O)/C(=N/OC)c1ccccc1O` [N-methyl-E-2-(2-hydroxyphenyl)-2-methoxyimino-acetamide], the chromatographic logP came out at 0.98. Same read-out and setting: for `CO/N=C(/C(=O)OC)c1ccccc1O` [methyl E-2-(2-hydroxyphenyl)-2-methoxyimino-acetate] the value was 1.48. As to `CNC(=O)/C(=N\OC)c1ccccc1Oc1ncnc(Oc2ccccc2Cl)c1F` (single isomer, unassigned) [XI-2, Z-isomer, N-methyl-Z-2-[2-(5-fluoro-2′-chlorophenoxypyrimidin-4-yloxy)-phenyl]-2-methoxyiminoacetamide], the log p was 2.95 and 2.94. Take `CNC(=O)/C(=N/OC)c1ccccc1Oc1ncnc(Oc2cccc(Cl)c2C)c1F` [XI-1, E-isomer, N-methyl-E-2-[2-(5-fluoro-2′-methyl-3′-chlorophenoxypyrimidin-4-yloxy)phenyl]-2-methoxyiminoacetamide]: the chromatographic logP stood at 3.51 and the log p worked out at 3.50.

In the case of `COC(=O)/C(=N\O)c1ccccc1O` [methyl Z-2-(2-hydroxyphenyl)-2-hydroxyimino-acetate], the chromatographic logP turned out to be 1.68 and the log p turned out to be 1.70.

Take `CNC(=O)/C(=N/OC)c1ccccc1Oc1ncnc(Oc2ccccc2Cl)c1F` (single isomer, unassigned) [XI-2, E-isomer, N-methyl-E-2-[2-(5-fluoro-2′-chlorophenoxypyrimidin-4-yloxy)phenyl]-2-methoxyiminoacetamide]: the log p was 3.01.

On to `CNC(=O)/C(=N\OC)c1ccccc1Oc1ncnc(F)c1F` [N-methyl-Z-2-[2-(5,6-difluoro-pyrimidin-4-yloxy)phenyl]-2-methoxyiminoacetamide], for which the chromatographic logP is 1.87. For `CNC(=O)/C(=N\OC)c1ccccc1O` [N-methyl-Z-2-(2-hydroxyphenyl)-2-methoxyiminoacetamide], the chromatographic logP was 1.29. Take `CNC(=O)/C(=N\OC)c1ccccc1Oc1ncnc(Oc2cccc(Cl)c2C)c1F` [XI-1, Z-isomer, N-methyl-Z-2-[2-(5-fluoro-2′-methyl-3′-chlorophenoxy-pyrimidin-4-yloxy)phenyl]-2-methoxyiminoacetamide]: the chromatographic logP is 3.44 and the log p is 3.43. Regarding `CNC(=O)/C(=N/OC)c1ccccc1Oc1ncnc(F)c1F` [N-methyl-E-2-[2-(5,6-difluoropyrimidin-4-yloxy)-phenyl]-2-methoxyiminoacetamide], the chromatographic logP was found to be 1.95. Turning to `COC(=O)/C(=N/O)c1ccccc1O` [methyl E-2-(2-hydroxyphenyl)-2-hydroxyimino-acetate], the chromatographic logP is 0.95.

Regarding `O=C1Oc2ccccc2/C1=N\O` [E-benzofuran-2,3-dione 3-oxime], the chromatographic logP worked out at 1.55.
